According to ChEMBL document CHEMBL2073793, “An in vitro evaluation of human cytochrome P450 3A4 and P-glycoprotein inhibition by garlic” (J Pharm Pharm Sci, 2001):

Biological target: ATP-dependent translocase ABCB1 (Homo sapiens, UniProt P08183)
Assay: TP_TRANSPORTER: ATP hydrolysis GENTEST
Assay type: functional

ATP-dependent translocase ABCB1, sequence (P08183 whole entry): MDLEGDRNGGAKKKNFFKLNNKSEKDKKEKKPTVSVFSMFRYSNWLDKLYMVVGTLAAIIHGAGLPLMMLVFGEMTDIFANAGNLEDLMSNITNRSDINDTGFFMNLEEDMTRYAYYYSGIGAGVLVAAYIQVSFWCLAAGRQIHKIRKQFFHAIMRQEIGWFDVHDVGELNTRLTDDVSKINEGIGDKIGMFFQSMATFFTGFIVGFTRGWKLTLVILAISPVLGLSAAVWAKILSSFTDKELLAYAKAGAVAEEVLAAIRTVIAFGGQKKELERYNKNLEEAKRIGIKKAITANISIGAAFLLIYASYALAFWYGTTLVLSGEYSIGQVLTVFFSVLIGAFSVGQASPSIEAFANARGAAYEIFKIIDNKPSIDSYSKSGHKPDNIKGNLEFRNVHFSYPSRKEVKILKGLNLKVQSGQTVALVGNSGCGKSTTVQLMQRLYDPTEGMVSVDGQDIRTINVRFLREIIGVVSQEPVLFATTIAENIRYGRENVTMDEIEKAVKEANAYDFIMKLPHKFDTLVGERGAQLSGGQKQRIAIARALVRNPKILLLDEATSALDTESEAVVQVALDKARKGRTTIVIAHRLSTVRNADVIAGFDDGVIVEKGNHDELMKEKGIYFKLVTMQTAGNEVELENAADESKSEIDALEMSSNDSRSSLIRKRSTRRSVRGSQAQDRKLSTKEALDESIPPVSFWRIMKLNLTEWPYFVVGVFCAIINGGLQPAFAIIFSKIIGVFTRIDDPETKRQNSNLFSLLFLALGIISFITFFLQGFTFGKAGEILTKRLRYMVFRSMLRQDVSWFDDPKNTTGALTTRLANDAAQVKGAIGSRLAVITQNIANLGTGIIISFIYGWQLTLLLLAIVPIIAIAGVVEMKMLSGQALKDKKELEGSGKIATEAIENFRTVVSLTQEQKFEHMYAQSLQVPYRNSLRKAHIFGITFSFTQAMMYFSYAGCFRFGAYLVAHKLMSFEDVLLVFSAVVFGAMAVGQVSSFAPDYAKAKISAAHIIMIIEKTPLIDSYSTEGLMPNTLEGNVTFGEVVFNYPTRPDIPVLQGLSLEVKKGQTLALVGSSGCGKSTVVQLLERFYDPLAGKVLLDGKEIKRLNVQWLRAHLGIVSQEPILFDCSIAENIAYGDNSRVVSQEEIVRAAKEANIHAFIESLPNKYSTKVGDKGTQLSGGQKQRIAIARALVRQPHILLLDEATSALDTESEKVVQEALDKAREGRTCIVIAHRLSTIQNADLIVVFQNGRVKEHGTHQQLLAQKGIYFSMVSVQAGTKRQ

Activity: substrate [+]
Substance: GARLIC
